Data set [1] is described as follows: In vivo inhibition of ERK phosphorylation in human MIA PaCa-2 cells harbouring KRAS G12C mutant xenografted in athymic nude Foxn1 nu mouse assessed as phosphorylated ERK level at 10 mg/kg, po qd measured after 4 hrs relative to total ERK. In kind it is functional. A general note: Xenograft models place foreign cells or tissue in a host animal.
A short description of data set [2]: Inhibition of human recombinant SOS2 catalytic domain/human recombinant GST-KRAS G12C mutant expressed in Escherichia coli assessed as inhibition of interaction.
The nature of data set [3]: Inhibition of N-terminal his-tagged human recombinant SOS2/C-terminal Avi-biotinylated-tagged human recombinant KRAS expressed in Escherichia coli assessed as inhibition of GDP exchange rate by TR-FRET assay. (In general: Time-resolved FRET reads energy transfer from a long-lived donor to a nearby acceptor.)
Data set [4] can be described thus: Free plasma concentration in CD-1 mouse at 100 mg/kg, po measured on 1 hr. The format is ADME, organism-based. The settings on record: in vivo.
A short description of data set [5]: In vivo inhibition of ERK phosphorylation in human MIA PaCa-2 cells harbouring KRAS G12C mutant xenografted in athymic nude Foxn1 nu mouse assessed as phosphorylated ERK level at 10 mg/kg, po qd in presence of 25 mg/kg MRTX849 measured after 4 hrs relative to total ERK. The format is functional.
The nature of data set [6]: In vivo inhibition of ERK phosphorylation in human MIA PaCa-2 cells harbouring KRAS G12C mutant xenografted in athymic nude Foxn1 nu mouse assessed as phosphorylated ERK level at 10 mg/kg, po qd in presence of 50 mg/kg MRTX849 measured after 4 hrs relative to total ERK. In kind it is functional.

Broadly, the inhibition in vivo is the percentage by which the read-out fell short of the control. As for `C=C(F)C(=O)N1CCN(c2nc(OC[C@@H]3CCCN3C)nc3c2CCN(c2cccc4cccc(Cl)c24)C3)C[C@@H]1CC#N` [ADAGRASIB], in data set [1], the inhibition in vivo at 10 mg/kg stood at 21%.
Broadly, the IC50 is the concentration that inhibits the measured activity by half. For the compound `CNCc1ccccc1-c1csc([C@@H](C)Nc2nc(C)nc3cc(OC)c(OC)cc23)c1` [BAY-293], the IC50 in data set [2] turned out to be 0.021 µM.
As to `Cc1c(C#N)cccc1[C@@H](C)Nc1nnc(C)c2cnc(N3CCOCC3)cc12` [MRTX-0902], the IC50 in data set [3] is > 10 µM. For the same compound, in data set [4], the “Cp(f)” value is given as 134 nM. The inhibition in vivo at 10 mg/kg stood at 66% in data set [5] and 81% in data set [6].

These data come from ChEMBL document CHEMBL5143739, “Design and Discovery of MRTX0902, a Potent, Selective, Brain-Penetrant, and Orally Bioavailable Inhibitor of the SOS1:KRAS Protein-Protein Interaction” (J Med Chem, 2022).
